Values quoted from earlier work, collected in patent US11318142B2, “Pharmaceutical formulation for use in the treatment of depressive and anxiety disorders” (priority 2018, dated 2022).

Settings: in vivo

## COc1ccc(C(CN(C)C)C2(O)CCCCC2)cc1 (racemic) [venlafaxine, (RS)-1-[2-dimethylamino-1-(4-methoxyphenyl)-ethyl]cyclohexanol]
  half-life: ~7 h

## OCCN1CCN(CCCN2c3ccccc3C=Cc3ccccc32)CC1 [opipramol, 4-[3-(5H-dibenz[b,f]azepine-5-yl)propyl]-1-piperazinethanol]
  half-life: 6 to 11 h
